For 20 compounds, IC50 results are on record in patent US20260200897A1, “4-((5-(3-(4-(PYRIDIN-2-YL)CYCLOPENTYL)-1H-PYRAZOL-3-YL)AMINO)-BENZENESULFONAMIDE DERIVATIVES AND SIMILAR COMPOUNDS AS CDK INHIBITORS FOR THE TREATMENT OF CANCER” (BeOne Medicines I GmbH, priority 2023, published 2026).

One experiment addresses CDK1/Cyclin B1 (Homo sapiens, UniProt P06493). Nature of the experiment: CDK1/Cyclin B1 TR-FRET biochemical assay, 0.015 mM ATP. The note with it: 0.15 μM Rb (Ser780)-biotin substrate, 120 min reaction, Table 1.
The target in the next experiment is CDK2/Cyclin E1 (Homo sapiens, UniProt P24941). Description: CDK2/Cyclin E1 TR-FRET biochemical assay, 0.060 mM ATP. The note with it: 0.15 μM Rb (Ser780)-biotin substrate, 120 min reaction, Table 1.

pIC50: −log10 of the molar value. A value given as a limit tells only on which side of the number the result lay.

CDK1/Cyclin B1, sequence (P06493 whole entry): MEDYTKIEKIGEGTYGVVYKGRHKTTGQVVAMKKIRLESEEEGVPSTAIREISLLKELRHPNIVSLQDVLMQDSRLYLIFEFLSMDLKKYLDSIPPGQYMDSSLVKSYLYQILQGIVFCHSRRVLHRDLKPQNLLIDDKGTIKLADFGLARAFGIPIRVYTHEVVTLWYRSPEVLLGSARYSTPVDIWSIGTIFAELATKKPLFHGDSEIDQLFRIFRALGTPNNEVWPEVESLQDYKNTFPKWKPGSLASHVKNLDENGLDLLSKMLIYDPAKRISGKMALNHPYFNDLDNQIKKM
CDK1/Cyclin B1, sequence (P14635 whole entry partner): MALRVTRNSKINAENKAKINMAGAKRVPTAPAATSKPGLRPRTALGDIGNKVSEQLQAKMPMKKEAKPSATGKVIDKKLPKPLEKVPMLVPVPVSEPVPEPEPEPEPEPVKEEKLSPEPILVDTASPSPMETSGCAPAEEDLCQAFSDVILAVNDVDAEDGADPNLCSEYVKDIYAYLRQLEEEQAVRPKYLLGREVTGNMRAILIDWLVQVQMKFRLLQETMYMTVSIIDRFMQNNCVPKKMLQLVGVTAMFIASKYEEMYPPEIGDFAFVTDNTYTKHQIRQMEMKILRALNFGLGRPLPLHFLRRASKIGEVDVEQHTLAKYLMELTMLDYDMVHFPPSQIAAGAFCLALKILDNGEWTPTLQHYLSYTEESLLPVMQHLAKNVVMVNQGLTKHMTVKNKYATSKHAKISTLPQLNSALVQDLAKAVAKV

`CC(C)(C)c1cnc(C2CCC(c3cc(Nc4ccc5c(c4F)CNS5(=O)=O)n[nH]3)C2)o1` (single isomer, unassigned) [Example 91a, cis-5-((5-(3-(5-(tert-butyl)oxazol-2-yl)cyclopentyl)-1H-pyrazol-3-yl)amino)-4-fluoro-2,3-dihydrobenzo[d]isothiazole 1,1-dioxide]: the pIC50 at CDK1/Cyclin B1 was 7.28; against CDK2/Cyclin E1, 8.89.
Consider `CC(C)(C)c1cnc(C2CCC(c3cc(Nc4ccc5c(c4F)CNS5(=O)=O)n[nH]3)C2)o1` (single isomer, unassigned) [Example 91b, cis-5-((5-(3-(5-(tert-butyl)oxazol-2-yl)cyclopentyl)-1H-pyrazol-3-yl)amino)-4-fluoro-2,3-dihydrobenzo[d]isothiazole 1,1-dioxide], for which the figures for the negative-log IC50 (pIC50) at CDK1/Cyclin B1 and against CDK2/Cyclin E1 were 5.59 and 7.64, respectively.
Take `CC(C)(C)c1cn[nH]c1O[C@@H]1CC[C@H](c2cc(Nc3ccc4c(c3F)CNS4(=O)=O)n[nH]2)C1` (relative stereo) [Example 61, cis-5-((5-(3-((4-(tert-butyl)-1H-pyrazol-5-yl)oxy)cyclopentyl)-1H-pyrazol-3-yl)amino)-4-fluoro-2,3-dihydrobenzo[d]isothiazole 1,1-dioxide]: the pIC50 against CDK1/Cyclin B1 was 7.25; at CDK2/Cyclin E1, 9.00.
With `CC(C)(C)c1cnc([C@@H]2CC[C@H](c3cc(Nc4ccc5c(c4)CS(=O)(=O)N5)n[nH]3)C2)o1` (relative stereo) [Example 135, cis-5-((5-(3-(5-(tert-butyl)oxazol-2-yl)cyclopentyl)-1H-pyrazol-3-yl)amino)-1,3-dihydrobenzo[c]isothiazole 2,2-dioxide], the pIC50 against CDK1/Cyclin B1 was 7.96; on CDK2/Cyclin E1, 8.34.
Taken in the same sequence, the figures for `O=S1(=O)NCc2c1ccc(Nc1cc([C@H]3CC[C@@H](Oc4cn[nH]c4)C3)[nH]n1)c2F` (relative stereo) [Example 76, cis-5-((5-(3-((1H-pyrazol-4-yl)oxy)cyclopentyl)-1H-pyrazol-3-yl)amino)-4-fluoro-2,3-dihydrobenzo[d]isothiazole 1,1-dioxide] were 5.79 and 7.28.
Taken in the same sequence, the figures for `CCc1cnc(C2CCC(c3cc(Nc4ccc5c(c4F)CS(=O)(=O)N5)n[nH]3)C2)o1` (stereo not shown) [Example 144, 5-((5-(3-(5-ethyloxazol-2-yl)cyclopentyl)-1H-pyrazol-3-yl)amino)-4-fluoro-1,3-dihydrobenzo[c]isothiazole 2,2-dioxide] were 6.48 and 7.80.
`CC(C)n1ccn([C@H]2CC[C@@H](c3cc(Nc4ccc5c(c4F)CNS5(=O)=O)n[nH]3)C2)c1=O` (relative stereo) [Example 83, cis-1-(3-(3-((4-fluoro-1,1-dioxido-2,3-dihydrobenzo[d]isothiazol-5-yl)amino)-1H-pyrazol-5-yl)cyclopentyl)-3-isopropyl-1,3-dihydro-2H-imidazol-2-one]: the pIC50 was under 5.00 against CDK1/Cyclin B1 and 6.15 against CDK2/Cyclin E1.
Take `CC(C)c1cncc(O[C@@H]2CC[C@H](c3cc(Nc4ccc5c(c4F)CNS5(=O)=O)n[nH]3)C2)c1` (relative stereo) [Example 44, cis-4-fluoro-5-((5-(3-((5-isopropylpyridin-3-yl)oxy)cyclopentyl)-1H-pyrazol-3-yl)amino)-2,3-dihydrobenzo[d]isothiazole 1,1-dioxide]: the pIC50 against CDK1/Cyclin B1 was 5.08; at CDK2/Cyclin E1, 5.85.
For `CC1(C)NC(=O)N(C2CCC(c3cc(Nc4ccc5c(c4F)CNS5(=O)=O)n[nH]3)C2)C1=O` (single isomer, unassigned) [Example 84a, cis-3-(3-(3-((4-fluoro-1,1-dioxido-2,3-dihydrobenzo[d]isothiazol-5-yl)amino)-1H-pyrazol-5-yl)cyclopentyl)-5,5-dimethylimidazolidine-2,4-dione], in that order: 6.63 and 8.12.
Consider `O=S1(=O)Cc2cc(Nc3cc(C4CCC(c5ncc(CO)o5)C4)[nH]n3)ccc2N1` (stereo not shown) [Example 134, 5-((5-(3-(5-(hydroxymethyl)oxazol-2-yl)cyclopentyl)-1H-pyrazol-3-yl)amino)-1,3-dihydrobenzo[c]isothiazole 2,2-dioxide], for which the pIC50 against CDK1/Cyclin B1 is 5.95; on CDK2/Cyclin E1, 7.39.
Taken in the same sequence, the figures for `O=c1c(C2CC2)ccnn1[C@H]1CC[C@@H](c2cc(Nc3ccc4c(c3F)CNS4(=O)=O)n[nH]2)C1` (relative stereo) [Example 28, cis-4-cyclopropyl-2-(3-(3-((4-fluoro-1,1-dioxido-2,3-dihydrobenzo[d]isothiazol-5-yl)amino)-1H-pyrazol-5-yl)cyclopentyl)pyridazin-3 (2H)-one] were 5.91 and 6.89.
Taken in the same sequence, the figures for `Cc1cc(O[C@@H]2CC[C@H](c3cc(Nc4ccc5c(c4F)CNS5(=O)=O)n[nH]3)C2)n(-c2ccccc2)n1` (relative stereo) [Example 66, cis-4-fluoro-5-((5-(3-((3-methyl-1-phenyl-1H-pyrazol-5-yl)oxy)cyclopentyl)-1H-pyrazol-3-yl)amino)-2,3-dihydrobenzo[d]isothiazole 1,1-dioxide] were under 5.00 and 5.60.
Taken in the same sequence, the figures for `O=S1(=O)NCc2c1ccc(Nc1cc([C@H]3CC[C@@H](Oc4nnccc4C4CCC4)C3)[nH]n1)c2F` (relative stereo) [Example 35, cis-5-((5-(3-((4-cyclobutylpyridazin-3-yl)oxy)cyclopentyl)-1H-pyrazol-3-yl)amino)-4-fluoro-2,3-dihydrobenzo[d]isothiazole 1,1-dioxide] were 7.46 and 8.59.
As for `CCc1cnc(C2CCC(c3cc(Nc4ccc5c(c4)CS(=O)(=O)N5)n[nH]3)C2)o1` (stereo not shown) [Example 133, 5-((5-(3-(5-ethyloxazol-2-yl)cyclopentyl)-1H-pyrazol-3-yl)amino)-1,3-dihydrobenzo[c]isothiazole 2,2-dioxide], the results for the pIC50 at CDK1/Cyclin B1 and at CDK2/Cyclin E1 were 7.09 and 8.21, respectively.
Taken in the same sequence, the figures for `O=S1(=O)NCc2c1ccc(Nc1cc([C@H]3CC[C@@H](Oc4n[nH]c5ccccc45)C3)[nH]n1)c2F` (relative stereo) [Example 67, cis-5-((5-(3-((1H-indazol-3-yl)oxy)cyclopentyl)-1H-pyrazol-3-yl)amino)-4-fluoro-2,3-dihydrobenzo[d]isothiazole 1,1-dioxide] were 5.67 and 7.27.
As for `CC(C)n1cnnc1O[C@@H]1CC[C@H](c2cc(Nc3ccc4c(c3F)CNS4(=O)=O)n[nH]2)C1` (relative stereo) [Example 57, cis-4-fluoro-5-((5-(3-((4-isopropyl-4H-1,2,4-triazol-3-yl)oxy)cyclopentyl)-1H-pyrazol-3-yl)amino)-2,3-dihydrobenzo[d]isothiazole 1,1-dioxide], the pIC50 was 5.08 against CDK1/Cyclin B1 and 6.47 on CDK2/Cyclin E1.
For `O=S1(=O)NCc2c1ccc(Nc1cc([C@H]3CC[C@@H](Oc4nnccc4-c4ccccc4)C3)[nH]n1)c2F` (relative stereo) [Example 31, cis-4-fluoro-5-((5-(3-((4-phenylpyridazin-3-yl)oxy)cyclopentyl)-1H-pyrazol-3-yl)amino)-2,3-dihydrobenzo[d]isothiazole 1,1-dioxide], in that order: 7.14 and 8.07.
Taken in the same sequence, the figures for `O=S1(=O)NCc2c1ccc(Nc1cc([C@H]3CC[C@@H](Oc4ccnn4-c4ccccc4)C3)[nH]n1)c2F` (relative stereo) [Example 70, (cis)-4-fluoro-5-((5-(3-((1-phenyl-1H-pyrazol-5-yl)oxy)cyclopentyl)-1H-pyrazol-3-yl)amino)-2,3-dihydrobenzo[d]isothiazole 1,1-dioxide] were under 5.00 and under 5.00.
As to `C=C(C)c1ccncc1O[C@@H]1CC[C@H](c2cc(Nc3ccc4c(c3F)CNS4(=O)=O)n[nH]2)C1` (relative stereo) [Example 43, cis-4-fluoro-5-((5-(3-((4-(prop-1-en-2-yl)pyridin-3-yl)oxy)cyclopentyl)-1H-pyrazol-3-yl)amino)-2,3-dihydrobenzo[d]isothiazole 1,1-dioxide], the negative logarithm of the IC50 (pIC50) at CDK1/Cyclin B1 was 7.24; against CDK2/Cyclin E1, 8.37.
On to `CN1C(=O)N([C@H]2CC[C@@H](c3cc(Nc4ccc5c(c4F)CNS5(=O)=O)n[nH]3)C2)C(=O)C1(C)C` (relative stereo) [Example 86, cis-3-(3-(3-((4-fluoro-1,1-dioxido-2,3-dihydrobenzo[d]isothiazol-5-yl)amino)-1H-pyrazol-5-yl)cyclopentyl)-1,5,5-trimethylimidazolidine-2,4-dione], for which the results for the pIC50 against CDK1/Cyclin B1 and against CDK2/Cyclin E1 were 5.87 and 7.14, respectively.
